Structures can show the parent of a compound that is named as a salt.
Row | SMILES | melting point [°C]
1 | Cn1nc(N)c2c(Nc3ccc(F)cc3)nc3ccccc3c21 (as salt: salt) [Compound 4, 4-(4-Fluoroanilino)-1-methyl-1H-pyrazolo[4,3-c]quinolin-3-amine] | 218 to 219
2 | COc1ccccc1Nc1nc2ccccc2c2c1c(N)nn2C [Compound 5, 4-(2-Methoxyanilino)-1-methyl-1H-pyrazolo[4,3-c]quinolin-3-amine] | 229 to 230
3 | CSc1ccc(Nc2nc3ccccc3c3c2c(N)nn3C)cc1 (as salt: salt) [Compound 9, 1-Methyl-4-(4-methylthioanilino)-1H-pyrazolo[4,3-c]quinolin-3-amine] | 233 to 235
4 | CC(=O)c1ccc(Nc2nc3ccccc3c3c2c(N)nn3C)cc1 [Compound 10, 4-(4-Acetoylanilino)-1-methyl-1H-pyrazolo[4,3-c]quinolin-3-amine] | 272 to 274
5 | Cn1nc(N)c2c(Nc3cccc(O)c3)nc3ccccc3c21 (as salt: salt) [Compound 12, 4-(3-Hydroxyanilino)-1-methyl-1H-pyrazolo[4,3-c]quinolin-3-amine] | 190 to 191
6 | COc1ccc(Nc2nc3ccccc3c3c2c(N)nn3C)cc1 (as salt: salt) [Compound 7, 4-(4-Methoxyanilino)-1-methyl-1H-pyrazolo[4,3-c]quinolin-3-amine] | 193 to 194
7 | Nc1noc2c1c(Nc1ccc(F)cc1)nc1ccccc12 (as salt: salt) [Compound 20, 4-(4-Fluoroanilino)isoxazolo[4,5-c]quinolin-3-amine] | 271 to 272
8 | COc1cc(Nc2nc3ccccc3c3c2c(N)nn3C)cc(OC)c1OC (as salt: salt) [Compound 8, 4-(3,4,5-Trimethoxyanilino)-1-methyl-1H-pyrazolo[4,3-c]quinolin-3-amine] | 219 to 220
9 | Nc1noc2c1c(Nc1ccc(C(=O)O)cc1)nc1ccccc12 (as salt: salt) [Compound 31, 4-[(3-aminoisoxazolo[4,5-c]quinolin-4-yl)amino]benzoic acid] | 308 to 310
10 | Cn1nc(N)c2c(Nc3ccc(C(F)(F)F)cc3)nc3ccccc3c21 (as salt: salt) [Compound 14, 4-(4-Trifluoromethylanilino)-1-methyl-1H-pyrazolo[4,3-c]quinolin-3-amine] | 219 to 220
11 | CC(=O)c1ccc(Nc2nc3ccccc3c3onc(N)c23)cc1 (as salt: salt) [Compound 27, 4-(4-Acetoylanilino)isoxazolo[4,5-c]quinolin-3-amine] | 255 to 257
12 | Nc1noc2c1c(Nc1ccccc1O)nc1ccccc12 (as salt: salt) [Compound 28, 4-(2-Hydroxyanilino)isoxazolo[4,5-c]quinolin-3-amine] | 240 to 241

More lines, now with the values ahead:

Row | melting point [°C] | SMILES
13 | 235 to 236 | Cn1nc(N)c2c(Nc3ccccc3S)nc3ccccc3c21 (as salt: salt) [Compound 16, 2-[(3-amino-1-methyl-1H-pyrazolo[4,3-c]quinolin-4-yl)amino]benzenethiol]
14 | 325 to 326 | Cn1nc(N)c2c(Nc3ccc(C(=O)O)cc3)nc3ccccc3c21 (as salt: salt) [Compound 15, 4-[(3-Amino-1-methyl-1H-pyrazolo[4,3-c]quinolin-4-yl)amino]benzoic acid]
15 | 264 to 266 | COc1cc(Nc2nc3ccccc3c3onc(N)c23)cc(OC)c1OC (as salt: salt) [Compound 24, 4-(3,4,5-Trimethoxyanilino)isoxazolo[4,5-c]quinolin-3-amine]
16 | 257 to 259 | COc1ccc(Nc2nc3ccccc3c3onc(N)c23)cc1 (as salt: salt) [Compound 23, 4-(4-Methoxyanilino)isoxazolo[4,5-c]quinolin-3-amine]
17 | 253 to 255 | Cc1ccc(Nc2nc3ccccc3c3c2c(N)nn3C)cc1 (as salt: salt) [Compound 18, 4-(4-Methylanilino)-1-methyl-1H-pyrazolo[4,3-c]quinolin-3-amine]

— patent publication US10654848B1, “Neutrophil inflammation inhibitor and uses thereof” (Chang Gung University of Science and Technology, priority 2018, dated 2020)
